Measurements: US11370763B2, “Compounds and compositions for treating conditions associated with NLRP activity” (Novartis AG, priority 2017, dated 2022)
Where two headings read alike, the source gives them in different places.

System: IL-1β production in PMA-differentiated THP-1 cells
Experiment: IL-1β production in PMA-differentiated THP-1 cells stimulated with gramicidin (hTHP-1 assay containing 2% fetal bovine serum; Procedures 1-3)
Type: cell-based, human
Details: read-out: hTHP-1 IC50 (Average IC50 of compounds in hTHP-1 assay)
Description: The following protocol is suitable for testing the activity of the compounds disclosed herein.
Procedure 1: IL-1β Production in PMA-Differentiated THP-1 Cells Stimulated with Gramicidin
THP-1 cells were purchased from the American Type Culture Collection and sub-cultured according to instructions from the supplier. Cells were cultured in complete RPMI 1640 (containing 10% heat inactivated FBS, penicillin (100 units/ml) and streptomycin (100 μg/ml)), and maintained in log phase prior to experimental setup. Prior to the experiment, compounds were dissolved in dimethyl sulfoxide (DMSO) to generate a 30 mM stock. The compound stock was first pre-diluted in DMSO to 3, 0.34, 0.042 and 0.0083 mM intermediate concentrations and subsequently spotted using Echo550 liquid handler into an empty 384-well assay plate to achieve desired final concentration (e.g. 100, 33, 11, 3.7, 1.2, 0.41, 0.14, 0.046, 0.015, 0.0051, 0.0017 μM). DMSO was backfilled in the plate to achieve a final DMSO assay concentration of 0.37%. The plate was then sealed and stored at room temperature until required.
THP-1 cells were treated with PMA (Phorbol 12-myristate 13-acetate) (20 ng/ml) for 16-18 hours. On the day of the experiment the media was removed and adherent cells were detached with trypsin for 5 minutes. Cells were then harvested, washed with complete RPMI 1640, spun down, and resuspended in RPMI 1640 (containing 2% heat inactivated FBS, penicillin (100 units/ml) and streptomycin (100 μg/ml). The cells were plated in the 384-well assay plate containing the spotted compounds at a density of 50,000 cells/well (final assay volume 50 μl). Cells were incubated with compounds for 1 hour and then stimulated with gramicidin (5 μM) (Enzo) for 2 hours. Plates were then centrifuged at 340 g for 5 min. Cell free supernatant (40 μL) was collected using a 96-channel PlateMaster (Gilson) and the production of IL-1β was evaluated by HTRF (cisbio). The plates were incubated for 18 h at 4° C. and read using the preset HTRF program (donor emission at 620 nm, acceptor emission at 668 nm) of the SpectraMax i3x spectrophotometer (Molecular Devices, software SoftMax 6). A vehicle only control and a dose titration of CRID3 (100-0.0017 μM) were run concurrently with each experiment.
Procedure 2: IL-1β Production in PMA-Differentiated THP-1 Cells Stimulated with Gramicidin
THP-1 cells were purchased from the American Type Culture Collection and sub-cultured according to instructions from the supplier. Prior to experiments, cells were cultured in complete RPMI 1640 (containing 10% heat inactivated FBS, penicillin (100 units/ml) and streptomycin (100 μg/ml)), and maintained in log phase prior to experimental setup. Prior to the experiment THP-1 were treated with PMA (Phorbol 12-myristate 13-acetate) (20 ng/ml) for 16-18 hours. Compounds were dissolved in dimethyl sulfoxide (DMSO) to generate a 30 mM stock. On the day of the experiment the media was removed and adherent cells were detached with trypsin for 5 minutes. Cells were then harvested, washed with complete RPMI 1640, spun down, resuspended in RPMI 1640 (containing 2% heat inactivated FBS, penicillin (100 units/ml) and streptomycin (100 μg/ml). The cells were plated in a 384-well plate at a density of 50,000 cells/well (final assay volume 50 μl). Compounds were first dissolved in assay medium to obtain a 5× top concentration of 500 μM. 10 step dilutions (1:3) were then undertaken in assay medium containing 1.67% DMSO. 5× compound solutions were added to the culture medium to achieve desired final concentration (e.g. 100, 33, 11, 3.7, 1.2, 0.41, 0.14, 0.046, 0.015, 0.0051, 0.0017 μM). Final DMSO concentration was at 0.37%. Cells were incubated with compounds for 1 hour and then stimulated with gramicidin (5 μM) (Enzo) for 2 hours. Plates were then centrifuged at 340 g for 5 min. Cell free supernatant (40 μL) was collected using a 96-channel PlateMaster (Gilson) and the production of IL-1β was evaluated by HTRF (cisbio). […]

[1] = Homo sapiens, THP-1, hTHP-1 assay containing 2% fetal bovine serum, class symbols
[2] = Homo sapiens, THP-1, hTHP-1 assay containing 2% fetal bovine serum, given as numeric bound
[3] = hTHP-1 assay containing 2% fetal bovine serum, class symbols

| SMILES | IC50 [1] [µM] | IC50 [2] [µM] | also measured |
| --- | --- | --- | --- |
| CC(C)c1ccc(F)c(C(C)C)c1CC(=O)N=S(N)(=O)c1ccc2c(cnn2C)c1 (single isomer, unassigned) [Example 198, (R) or (S)-N-(amino(1-methyl-1H-indazol-5-yl)(oxo)-λ^6-sulfaneylidene)-2-(3-fluoro-2,6-diisopropylphenyl)acetamide] | 5 to 30 | – | – |
| CC(C)c1nc(-c2cccc(C(F)(F)F)c2)c(F)c(C(C)C)c1CC(=O)N=S(N)(=O)c1cnc(C(C)(C)O)s1 (single isomer, unassigned) [Example 202, N-(amino(2-(2-hydroxypropan-2-yl)thiazol-5-yl)(oxo)-λ^6-sulfaneylidene)-2-(5-fluoro-2,4-diisopropyl-6-(3-(trifluoromethyl)phenyl)pyridin-3-yl)acetamide] | – | – | IC50 [3]: 0.2 to 1 µM |
| CC(C)c1ncc(F)c(C(C)C)c1CC(=O)N=S(N)(=O)c1sc(C(C)(C)O)cc1F (single isomer, unassigned) [Example 211, N-(amino(3-fluoro-5-(2-hydroxypropan-2-yl)thiophen-2-yl)(oxo)-λ^6-sulfaneylidene)-2-(5-fluoro-2,4-diisopropylpyridin-3-yl)acetamide] | – | – | IC50 [3]: 0.2 to 1 µM |
| CC(C)c1cc2c(c(C(C)C)c1CC(=O)N=S(N)(=O)c1ccn(C(C)C)n1)COC2 (single isomer, unassigned) [Example 218, (R) or (S)-N-(amino(1-isopropyl-1H-pyrazol-3-yl)(oxo)-λ^6-sulfaneylidene)-2-(4,6-diisopropyl-1,3-dihydroisobenzofuran-5-yl)acetamide] | 5 to 30 | – | – |
| CC(C)c1cc2c(c(C(C)C)c1CC(=O)N=S(N)(=O)c1ccn(C(C)C)n1)COC2 (single isomer, unassigned) [Example 219, (S) or (R)-N-(amino(1-isopropyl-1H-pyrazol-3-yl)(oxo)-λ^6-sulfaneylidene)-2-(4,6-diisopropyl-1,3-dihydroisobenzofuran-5-yl)acetamide] | – | > 30 | – |
| CC(C)c1cc(F)cc(C(C)C)c1CC(=O)N=S(N)(=O)c1ccc(C(C)(C)O)cc1 (stereo not drawn) [Compound 131] | – | – | IC50 [3]: 5 to 30 µM |
| CC(C)(O)c1ncc(S(N)(=O)=NC(=O)Cc2cc3c(c4c2CCC4)CCC3)s1 (stereo not drawn) [Compound 259] | – | > 17 | – |
| CC(C)(O)c1ncc([S@@](N)(=O)=NC(=O)Cc2cc3c(c4c2CCC4)CCC3)s1 [Compound 259a] | 5 to 30 | – | – |
| CC(C)(O)c1ncc([S@](N)(=O)=NC(=O)Cc2cc3c(c4c2CCC4)CCC3)s1 [Compound 259b] | – | > 30 | – |
| CC(C)(O)c1ncc([S@@](N)(=O)=NC(=O)Cn2c3ccccc3c3ccccc32)s1 [Compound 262a] | – | > 30 | – |
| CC(C)(O)c1ncc([S@](N)(=O)=NC(=O)Cn2c3ccccc3c3ccccc32)s1 [Compound 262b] | 5 to 30 | – | – |
| CC(C)(O)c1cnc(S(N)(=O)=NC(=O)Cc2c3c(cc4c2CCC4)CCC3)s1 (stereo not drawn) [Example 4, 2-(1,2,3,5,6,7-Hexahydro-s-indacen-4-yl)-N-(5-(2-hydroxypropan-2-yl)thiazol-2-ylsulfonimidoyl)acetamide] | 5 to 30 | – | – |
| CC(C)c1cc(F)cc(C(C)C)c1CC(=O)N=S(=O)(NC(=O)Cc1c(C(C)C)cc(F)cc1C(C)C)c1ncc(C(C)(C)O)s1 (stereo not drawn) [Example 10, N,N-(5-(2-hydroxypropan-2-yl)thiazol-2-ylsulfinyl)bis(2-(4-fluoro-2,6-diisopropylphenyl)acetamide)] | 5 to 30 | – | – |
| CNS(=O)(=NC(=O)Cc1c(C(C)C)cc(F)cc1C(C)C)c1ncc(C(C)(C)O)s1 (stereo not drawn) [Example 11, 2-(4-Fluoro-2,6-diisopropylphenyl)-N-(5-(2-hydroxypropan-2-yl)-N-methylthiazole-2-sulfonimidoyl)acetamide] | 5 to 30 | – | – |

Now from value to compound, other results behind:

| IC50 [1] [µM] | IC50 [2] [µM] | SMILES | also measured |
| --- | --- | --- | --- |
| – | > 30 | CC(C)c1ccc(F)c(C(C)C)c1CC(=O)N=S(N)(=O)c1ccc2c(cnn2C)c1 (single isomer, unassigned) [Example 199, (S) or (R)-N-(amino(1-methyl-1H-indazol-5-yl)(oxo)-λ^6-sulfaneylidene)-2-(3-fluoro-2,6-diisopropylphenyl)acetamide] | – |
| 1 to 5 | – | CC(C)c1ccc(F)c(C(C)C)c1CC(=O)N=S(N)(=O)c1ccc(CN(C)C)cn1 (single isomer, unassigned) [Example 200, (R) or (S)-N-(amino(5-((dimethylamino)methyl)pyridin-2-yl)(oxo)-λ^6-sulfaneylidene)-2-(3-fluoro-2,6-diisopropylphenyl)acetamide] | – |
| – | > 30 | CC(C)c1ccc(F)c(C(C)C)c1CC(=O)N=S(N)(=O)c1ccc(CN(C)C)cn1 (single isomer, unassigned) [Example 201, (S) or (R)-N-(amino(5-((dimethylamino)methyl)pyridin-2-yl)(oxo)-λ^6-sulfaneylidene)-2-(3-fluoro-2,6-diisopropylphenyl)acetamide] | – |
| 1 to 5 | – | CC(C)c1ncc(F)c(C(C)C)c1CC(=O)N=S(N)(=O)c1ncc(C(C)(C)O)s1 (single isomer, unassigned) [Example 204, N-(amino(5-(2-hydroxypropan-2-yl)thiazol-2-yl)(oxo)-λ^6-sulfaneylidene)-2-(5-fluoro-2,4-diisopropylpyridin-3-yl)acetamide] | – |
| – | > 30 | CC(C)c1ncc(F)c(C(C)C)c1CC(=O)N=S(N)(=O)c1ncc(C(C)(C)O)s1 (single isomer, unassigned) [Example 205, (S) or (R)-N-(amino(5-(2-hydroxypropan-2-yl)thiazol-2-yl)(oxo)-λ^6-sulfaneylidene)-2-(5-fluoro-2,4-diisopropylpyridin-3-yl)acetamide] | – |
| 0.2 to 1 | – | CC(C)c1ncc(F)c(C(C)C)c1CC(=O)N=S(N)(=O)c1nc(C(C)(C)O)cs1 (single isomer, unassigned) [Example 206, N-(amino(4-(2-hydroxypropan-2-yl)thiazol-2-yl)(oxo)-λ^6-sulfaneylidene)-2-(5-fluoro-2,4-diisopropylpyridin-3-yl)acetamide] | – |
| – | > 30 | CC(C)c1ncc(F)c(C(C)C)c1CC(=O)N=S(N)(=O)c1nc(C(C)(C)O)cs1 (single isomer, unassigned) [Example 207, (S) or (R)-N-(amino(4-(2-hydroxypropan-2-yl)thiazol-2-yl)(oxo)-λ^6-sulfaneylidene)-2-(5-fluoro-2,4-diisopropylpyridin-3-yl)acetamide] | – |
| – | > 30 | CC(C)c1cc2c(c(C(C)C)c1CC(=O)N=S(N)(=O)c1cnc(C(C)(C)O)s1)CCC2 (single isomer, unassigned) [Example 212, (R) or (S)-N-(amino(2-(2-hydroxypropan-2-yl)thiazol-5-yl)(oxo)-λ^6-sulfaneylidene)-2-(4,6-diisopropyl-2,3-dihydro-1H-inden-5-yl)acetamide] | – |
| 1 to 5 | – | CC(C)c1cc2c(c(C(C)C)c1CC(=O)N=S(N)(=O)c1cnc(C(C)(C)O)s1)CCC2 (single isomer, unassigned) [Example 213, (S) or (R)-N-(amino(2-(2-hydroxypropan-2-yl)thiazol-5-yl)(oxo)-λ^6-sulfaneylidene)-2-(4,6-diisopropyl-2,3-dihydro-1H-inden-5-yl)acetamide] | – |
| 0.2 to 1 | – | CC(C)c1cc(F)cc(C(C)C)c1CC(=O)N=S(N)(=O)c1ncc(C(C)(C)O)s1 (stereo not drawn) [Example 7, 2-(4-Fluoro-2,6-diisopropylphenyl)-N-(5-(2-hydroxypropan-2-yl)thiazole-2-sulfonimidoyl)acetamide] | – |
